Measured values reported in publication PMC4413193, “3-[4-(1H-Indol-3-yl)-1,3-thiazol-2-yl]-1H-pyrrolo[2,3-b]pyridines, Nortopsentin Analogues with Antiproliferative Activity” (Marine Drugs, 2015).

Columns and labels:
[1] = tested on: leukemia cancer subpanel cell lines; experiment: NCI-60 screen, leukemia subpanel summary; assay type: cell-based; conditions: Homo sapiens; range over the leukemia subpanel; read-out: GI50 of all the leukemia subpanel cell lines (range)
Protocol: (§1) All the synthesized thiazoles 3a–k were evaluated by the National Cancer Institute (Bethesda MD) for cytotoxicity against the NCI-60 cell line panel using standard protocols. Initially, the selected derivatives 3c,d,g,h,j,k were tested at a single dose (10^−5 M) on the full panel of approximately 60 human tumor cell lines derived from 9 human cancer cell types, that have been grouped in disease sub-panels including leukemia, non-small-cell lung, colon, central nervous system (CNS), melanoma, ovarian, renal, prostate and breast cancers (data not shown). Compounds 3d and 3k were further selected for full evaluation at five concentration levels (10^−4–10^−8 M).
(§2) The antitumor activity of compounds 3d and 3k was given by three parameters for each cell line: GI50 (the molar concentration of the compound that inhibits 50% net cell growth), TGI (the molar concentration of the compound leading to total inhibition of net cell growth), and LC50 (the molar concentration of the compound that induces 50% net cell death). The average values of mean graph midpoint (MG_MID) were calculated for each of these parameters.

NCI-H23 = experiment: NCI-60 in vitro tumor cell growth inhibition, NCI-H23 (non-small cell lung cancer); assay type: cell-based; conditions: Homo sapiens, five concentration levels
Protocol: as §1, §2

786-0 = experiment: NCI-60 in vitro tumor cell growth inhibition, 786-0 (renal cancer); assay type: cell-based; conditions: Homo sapiens, five concentration levels
Protocol: as §1, §2

NCI-H322M = experiment: NCI-60 in vitro tumor cell growth inhibition, NCI-H322M (non-small cell lung cancer); assay type: cell-based; conditions: Homo sapiens, five concentration levels
Protocol: as §1, §2

OVCAR-4 = experiment: NCI-60 in vitro tumor cell growth inhibition, OVCAR-4 (ovarian cancer); assay type: cell-based; conditions: Homo sapiens, five concentration levels
Protocol: as §1, §2

MOLT-4 = experiment: NCI-60 in vitro tumor cell growth inhibition, MOLT-4 (leukemia); assay type: cell-based; conditions: Homo sapiens, five concentration levels 10^−4–10^−8 M
Protocol: as §1, §2

HS 578T = experiment: NCI-60 in vitro tumor cell growth inhibition, HS 578T (breast cancer); assay type: cell-based; conditions: Homo sapiens, five concentration levels
Protocol: as §1, §2

HOP-62 = experiment: NCI-60 in vitro tumor cell growth inhibition, HOP-62 (non-small cell lung cancer); assay type: cell-based; conditions: Homo sapiens, five concentration levels
Protocol: as §1, §2

SF-295 = experiment: NCI-60 in vitro tumor cell growth inhibition, SF-295 (CNS cancer); assay type: cell-based; conditions: Homo sapiens, five concentration levels
Protocol: as §1, §2

OVCAR-5 = experiment: NCI-60 in vitro tumor cell growth inhibition, OVCAR-5 (ovarian cancer); assay type: cell-based; conditions: Homo sapiens, five concentration levels
Protocol: as §1, §2

SK-MEL-28 = experiment: NCI-60 in vitro tumor cell growth inhibition, SK-MEL-28 (melanoma); assay type: cell-based; conditions: Homo sapiens, five concentration levels
Protocol: as §1, §2

UACC-62 = experiment: NCI-60 in vitro tumor cell growth inhibition, UACC-62 (melanoma); assay type: cell-based; conditions: Homo sapiens, five concentration levels
Protocol: as §1, §2

MDA-MB-231/ATCC = experiment: NCI-60 in vitro tumor cell growth inhibition, MDA-MB-231/ATCC (breast cancer); assay type: cell-based; conditions: Homo sapiens, five concentration levels
Protocol: as §1, §2

CAKI-1 = experiment: NCI-60 in vitro tumor cell growth inhibition, CAKI-1 (renal cancer); assay type: cell-based; conditions: Homo sapiens, five concentration levels
Protocol: as §1, §2

HepG2 cells = experiment: Phosphatidylserine exposure, Annexin V-FITC/PI flow cytometry; assay type: cell-based, human; conditions: HepG2, 24 h, at GI50 values
Protocol: Apoptosis induction by 3d and 3k in HepG2 cells was investigated by externalization of plasma membrane phosphatidylserine and changes of mitochondrial transmembrane potential.
The apoptosis-induced PS externalization to the cell surface was measured by flow cytometry by double staining with Annexin V-Fluorescein isothiocyanate (Annexin V-FITC)/propidium iodide (PI). Annexin V binding to phosphatidylserine is used to identify the earliest stage of apoptosis. […] HepG2 cells were seeded in triplicate in 24-wells culture plates at a density of 2.0 × 10^5 cells/cm^2. After an overnight incubation, cells were washed with fresh medium and incubated with the compounds in RPMI. After 24 h, cells were harvested by trypsinization and adjusted at 2.0 × 10^5 cells/mL with combining buffer. One hundred μL of cell suspended solution was added to a new tube, and incubated with 5 µL annexin V and 10 μL of a 20 μg/mL PI solution at room temperature in the dark for 15 min. Then at least 1.0 × 10^4 cells were immediately subjected to FACS analysis using appropriate 2-bidimensional gating method.

LOX IMVI = experiment: NCI-60 in vitro tumor cell growth inhibition, LOX IMVI (melanoma); assay type: cell-based; conditions: Homo sapiens, five concentration levels
Protocol: as §1, §2

A549/ATCC = experiment: NCI-60 in vitro tumor cell growth inhibition, A549/ATCC (non-small cell lung cancer); assay type: cell-based; conditions: Homo sapiens, five concentration levels
Protocol: as §1, §2

M14 = experiment: NCI-60 in vitro tumor cell growth inhibition, M14 (melanoma); assay type: cell-based; conditions: Homo sapiens, five concentration levels
Protocol: as §1, §2

HCT-15 = experiment: NCI-60 in vitro tumor cell growth inhibition, HCT-15 (colon cancer); assay type: cell-based; conditions: Homo sapiens, five concentration levels
Protocol: as §1, §2

SNB-19 = experiment: NCI-60 in vitro tumor cell growth inhibition, SNB-19 (CNS cancer); assay type: cell-based; conditions: Homo sapiens, five concentration levels
Protocol: as §1, §2

UACC-257 = experiment: NCI-60 in vitro tumor cell growth inhibition, UACC-257 (melanoma); assay type: cell-based; conditions: Homo sapiens, five concentration levels
Protocol: as §1, §2

SK-MEL-5 = experiment: NCI-60 in vitro tumor cell growth inhibition, SK-MEL-5 (melanoma); assay type: cell-based; conditions: Homo sapiens, five concentration levels
Protocol: as §1, §2

TK-10 = experiment: NCI-60 in vitro tumor cell growth inhibition, TK-10 (renal cancer); assay type: cell-based; conditions: Homo sapiens, five concentration levels
Protocol: as §1, §2

SMILES | GI50 [1] [nM] | GI50 (NCI-H23) [nM] | GI50 (786-0) [nM] | GI50 (OVCAR-4) [µM] | GI50 (MOLT-4) [nM] | GI50 (HS 578T) [nM] | GI50 (HOP-62) [nM] | GI50 (SF-295) [nM] | GI50 (OVCAR-5) [nM] | GI50 (SK-MEL-28) [nM] | GI50 (UACC-62) [nM] | GI50 (MDA-MB-231/ATCC) [nM] | GI50 (CAKI-1) [nM] | apoptosis induction, externalized phosphatidylserine (HepG2 cells) | GI50 (LOX IMVI) [nM] | GI50 (A549/ATCC) [nM] | GI50 (M14) [nM] | GI50 (HCT-15) [nM] | GI50 (SNB-19) [nM] | GI50 (UACC-257) [µM] | further results
Cn1cc(-c2csc(-c3cn(C)c4ncccc34)n2)c2ccccc21 [Compound 3d, 1-Methyl-3-[4-(1-methyl-1H-indol-3-yl)-1,3-thiazol-2-yl]-1H-pyrrolo[2,3-b]pyridine] | 60 to 670 | 720 | 970 | 7.22 | 670 | 590 | 810 | 240 | 1410 | 1200 | 300 | 2820 | 380 | high percentage of cells in early apoptosis | 540 | 560 | 270 | 170 | 630 | 13 | GI50 (NCI-H322M): 760 nM; GI50 (SK-MEL-5): 240 nM; GI50 (TK-10): 600 nM
Cn1cc(-c2nc(-c3c[nH]c4ccccc34)cs2)c2cccnc21 [Compound 3k, 3-[4-(1H-Indol-3-yl)-1,3-thiazol-2-yl]-1-methyl-1H-pyrrolo[2,3-b]pyridine] | 120 to 660 | 670 | 720 | 0.52 | 660 | 660 | 930 | 310 | 2390 | 760 | 420 | 1290 | 440 | high percentage of cells in early apoptosis | 510 | 710 | 280 | 290 | 640 | 14.2 | GI50 (SK-MEL-5): 270 nM; GI50 (TK-10): 990 nM
